Molecules are shown by their SMILES. Residues, ends and D or L forms follow the SMILES beside them.

The first experiment deals with Sushi domains (SD1/2) protein. Description: Fluorescence polarization (FP) competition assay with AJAP-1probe, calculated Ki. The settings on record: Table 4, truncation and elongation scans of APP epitope; read-out: Ki (nM) mean ± SEM. In kind it is binding. As for the experimental part:
Fluorescence polarization (FP). FP assay was employed to determine the binding affinity of peptides in flat bottom black 384-well plates (Corning Life Science) using a Safire2 plate reader (Tecan). All experiments were conducted in 1×PBS (pH 7.4) containing 1% bovine serum albumin (BSA) at rt. The fluorescence polarization values were measured using excitation/emission wavelengths of 530/580 nm. The instrumental Z-factor was adjusted to obtain the maximum fluorescence intensity and the G-factor was calibrated to give an initial millipolarization value of 20 mP. All FP assays including saturation or competition experiments were performed using 25 nM of TAMRA labeled peptides as probes. For saturation assay, the millipolarization values were measured after mixing of probes with 12 serial 1 to 1 diluted concentrations of Sushi domains (SD1/2) protein. All experiments were performed in triplicate and the data were plotted to the one-site binding model using GraphPad Prism 9 to calculate the Kd of probes. […] The experiments were performed at least in triplicate and the data were fitted to the sigmoidal dose response curve using GraphPad Prism 9 to obtain the IC50 of peptides. The Ki values were calculated according to Nikolovska-Coleska et al^310.
Take `CC(=O)N[C@@H](CC(=O)O)C(=O)N[C@@H](CO)C(=O)N[C@@H](C)C(=O)N[C@@H](CC(=O)O)C(=O)N[C@@H](C)C(=O)N[C@@H](CCC(=O)O)C(=O)N[C@@H](CCC(=O)O)C(=O)N[C@@H](CC(=O)O)C(=O)N[C@@H](CC(=O)O)C(=O)N[C@@H](CO)C(=O)N[C@@H](CC(=O)O)C(=O)N[C@H](C(=O)N[C@@H](Cc1c[nH]c2ccccc12)C(=O)N[C@@H](Cc1c[nH]c2ccccc12)C(=O)NCC(=O)NCC(=O)N[C@@H](C)C(=O)N[C@@H](CC(=O)O)C(=O)N[C@H](C(=O)N[C@@H](CC(=O)O)C(=O)N[C@@H](Cc1ccc(O)cc1)C(=O)N[C@@H](C)C(=O)N[C@@H](CC(=O)O)C(N)=O)[C@@H](C)O)C(C)C` (Ac-DSADAEEDDSDVWWGGADTDYAD-NH2): the Ki was 513 ± 17 nM.

For `CC(=O)N[C@@H](CC(=O)O)C(=O)N[C@@H](CO)C(=O)N[C@@H](CC(=O)O)C(=O)N[C@H](C(=O)N[C@@H](Cc1c[nH]c2ccccc12)C(=O)N[C@@H](Cc1c[nH]c2ccccc12)C(=O)NCC(=O)NCC(=O)N[C@@H](C)C(=O)N[C@@H](CC(=O)O)C(=O)N[C@H](C(=O)N[C@@H](CC(=O)O)C(=O)N[C@@H](Cc1ccc(O)cc1)C(=O)N[C@@H](C)C(=O)N[C@@H](CC(=O)O)C(N)=O)[C@@H](C)O)C(C)C` (Ac-DSDVWWGGADTDYAD-NH2), the Ki was 1500 ± 66 nM.

As to `CC(=O)N[C@@H](CC(=O)O)C(=O)N[C@H](C(=O)N[C@@H](Cc1c[nH]c2ccccc12)C(=O)N[C@@H](Cc1c[nH]c2ccccc12)C(=O)NCC(=O)NCC(=O)N[C@@H](C)C(=O)N[C@@H](CC(=O)O)C(=O)N[C@H](C(=O)N[C@@H](CC(=O)O)C(=O)N[C@@H](Cc1ccc(O)cc1)C(=O)N[C@@H](C)C(=O)N[C@@H](CC(=O)O)C(N)=O)[C@@H](C)O)C(C)C` (Ac-DVWWGGADTDYAD-NH2), the Ki was 6100 ± 307 nM.

Still in this experiment, the particulars now being: Table 7, Ala-, D-amino acids and N-methylation scans of APPWT; read-out: Ki (nM) mean ± SEM.
For the compound `CC(=O)N[C@@H](CCC(=O)O)C(=O)N[C@@H](C)C(=O)N[C@@H](CC(=O)O)C(=O)N[C@@H](CO)C(=O)N[C@@H](CC(=O)O)C(=O)N[C@H](C(=O)N[C@@H](Cc1c[nH]c2ccccc12)C(=O)N[C@@H](Cc1c[nH]c2ccccc12)C(=O)NCC(=O)NCC(=O)N[C@@H](C)C(=O)N[C@@H](CC(=O)O)C(=O)N[C@H](C(=O)N[C@@H](CC(=O)O)C(N)=O)[C@@H](C)O)C(C)C` (Ac-EADSDVWWGGADTD-NH2), the Ki was 1240 ± 65 nM.

`CC(=O)N[C@@H](CCC(=O)O)C(=O)N[C@@H](CC(=O)O)C(=O)N[C@@H](C)C(=O)N[C@@H](CO)C(=O)N[C@@H](CC(=O)O)C(=O)N[C@H](C(=O)N[C@@H](Cc1c[nH]c2ccccc12)C(=O)N[C@@H](Cc1c[nH]c2ccccc12)C(=O)NCC(=O)NCC(=O)N[C@@H](C)C(=O)N[C@@H](CC(=O)O)C(=O)N[C@H](C(=O)N[C@@H](CC(=O)O)C(N)=O)[C@@H](C)O)C(C)C` (Ac-EDASDVWWGGADTD-NH2): the Ki was 1830 ± 54 nM.

On to `CC(=O)N[C@@H](CCC(=O)O)C(=O)N[C@@H](CC(=O)O)C(=O)N[C@@H](CC(=O)O)C(=O)N[C@@H](C)C(=O)N[C@@H](CC(=O)O)C(=O)N[C@H](C(=O)N[C@@H](Cc1c[nH]c2ccccc12)C(=O)N[C@@H](Cc1c[nH]c2ccccc12)C(=O)NCC(=O)NCC(=O)N[C@@H](C)C(=O)N[C@@H](CC(=O)O)C(=O)N[C@H](C(=O)N[C@@H](CC(=O)O)C(N)=O)[C@@H](C)O)C(C)C` (Ac-EDDADVWWGGADTD-NH2), for which the Ki is 660 ± 21 nM.

Regarding `CC(=O)N[C@@H](CCC(=O)O)C(=O)N[C@@H](CC(=O)O)C(=O)N[C@@H](CC(=O)O)C(=O)N[C@@H](CO)C(=O)N[C@@H](C)C(=O)N[C@H](C(=O)N[C@@H](Cc1c[nH]c2ccccc12)C(=O)N[C@@H](Cc1c[nH]c2ccccc12)C(=O)NCC(=O)NCC(=O)N[C@@H](C)C(=O)N[C@@H](CC(=O)O)C(=O)N[C@H](C(=O)N[C@@H](CC(=O)O)C(N)=O)[C@@H](C)O)C(C)C` (Ac-EDDSAVWWGGADTD-NH2), the Ki is 3076 ± 22 nM.

For the compound `CC(=O)N[C@@H](CCC(=O)O)C(=O)N[C@@H](CC(=O)O)C(=O)N[C@@H](CC(=O)O)C(=O)N[C@@H](CO)C(=O)N[C@@H](CC(=O)O)C(=O)N[C@H](C(=O)N[C@@H](C)C(=O)N[C@@H](Cc1c[nH]c2ccccc12)C(=O)NCC(=O)NCC(=O)N[C@@H](C)C(=O)N[C@@H](CC(=O)O)C(=O)N[C@H](C(=O)N[C@@H](CC(=O)O)C(N)=O)[C@@H](C)O)C(C)C` (Ac-EDDSDVAWGGADTD-NH2), the Ki was 8790 ± 92 nM.

The experiment is the same for the next values; noted with them: Table 7, cells printed in μM; read-out: Ki (nM) mean ± SEM.
As to `CC(=O)N[C@@H](CCC(=O)O)C(=O)N[C@@H](CC(=O)O)C(=O)N[C@@H](CC(=O)O)C(=O)N[C@@H](CO)C(=O)N[C@@H](CC(=O)O)C(=O)N[C@@H](C)C(=O)N[C@@H](Cc1c[nH]c2ccccc12)C(=O)N[C@@H](Cc1c[nH]c2ccccc12)C(=O)NCC(=O)NCC(=O)N[C@@H](C)C(=O)N[C@@H](CC(=O)O)C(=O)N[C@H](C(=O)N[C@@H](CC(=O)O)C(N)=O)[C@@H](C)O` (Ac-EDDSDAWWGGADTD-NH2), the Ki was above 62500 nM.

As for `CC(=O)N[C@@H](CCC(=O)O)C(=O)N[C@@H](CC(=O)O)C(=O)N[C@@H](CC(=O)O)C(=O)N[C@@H](CO)C(=O)N[C@@H](CC(=O)O)C(=O)N[C@H](C(=O)N[C@@H](Cc1c[nH]c2ccccc12)C(=O)N[C@@H](C)C(=O)NCC(=O)NCC(=O)N[C@@H](C)C(=O)N[C@@H](CC(=O)O)C(=O)N[C@H](C(=O)N[C@@H](CC(=O)O)C(N)=O)[C@@H](C)O)C(C)C` (Ac-EDDSDVWAGGADTD-NH2), the Ki was above 62500 nM.

The same experiment, now with this note: Table 10, deep mutational scanning validation variants of APPWT; read-out: Ki (nM) mean ± SEM.
Regarding `CC[C@H](C)[C@H](NC(=O)[C@H](CC(=O)O)NC(=O)[C@H](CO)NC(=O)[C@H](CC(=O)O)NC(=O)[C@H](CC(=O)O)NC(=O)[C@H](CCC(=O)O)NC(C)=O)C(=O)N[C@@H](Cc1c[nH]c2ccccc12)C(=O)N[C@@H](Cc1c[nH]c2ccccc12)C(=O)NCC(=O)NCC(=O)N[C@@H](C)C(=O)N[C@@H](CC(=O)O)C(=O)N[C@H](C(=O)N[C@@H](CC(=O)O)C(N)=O)[C@@H](C)O` (Ac-EDDSDIWWGGADTD-NH2), the Ki is 401 ± 7 nM.

`CC(=O)N[C@@H](CCC(=O)O)C(=O)N[C@@H](CC(=O)O)C(=O)N[C@@H](CC(=O)O)C(=O)N[C@@H](CO)C(=O)N[C@@H](CC(=O)O)C(=O)N[C@H](C(=O)N[C@@H](CC(=O)O)C(=O)N[C@@H](Cc1c[nH]c2ccccc12)C(=O)NCC(=O)NCC(=O)N[C@@H](C)C(=O)N[C@@H](CC(=O)O)C(=O)N[C@H](C(=O)N[C@@H](CC(=O)O)C(N)=O)[C@@H](C)O)C(C)C` (Ac-EDDSDVDWGGADTD-NH2): the Ki was 4804 ± 43 nM.

As to `CC[C@H](C)[C@H](NC(=O)[C@@H](NC(=O)[C@H](CC(=O)O)NC(=O)[C@H](CO)NC(=O)[C@H](CC(=O)O)NC(=O)[C@H](CC(=O)O)NC(=O)[C@H](CCC(=O)O)NC(C)=O)C(C)C)C(=O)N[C@@H](Cc1c[nH]c2ccccc12)C(=O)NCC(=O)NCC(=O)N[C@@H](C)C(=O)N[C@@H](CC(=O)O)C(=O)N[C@H](C(=O)N[C@@H](CC(=O)O)C(N)=O)[C@@H](C)O` (Ac-EDDSDVIWGGADTD-NH2), the Ki was 951 ± 20 nM.

With `CC(=O)N[C@@H](CCC(=O)O)C(=O)N[C@@H](CC(=O)O)C(=O)N[C@@H](CC(=O)O)C(=O)N[C@@H](CO)C(=O)N[C@@H](CC(=O)O)C(=O)N[C@H](C(=O)N[C@@H](Cc1c[nH]c2ccccc12)C(=O)N[C@@H](Cc1c[nH]c2ccccc12)C(=O)N[C@@H](CC(=O)O)C(=O)NCC(=O)N[C@@H](C)C(=O)N[C@@H](CC(=O)O)C(=O)N[C@H](C(=O)N[C@@H](CC(=O)O)C(N)=O)[C@@H](C)O)C(C)C` (Ac-EDDSDVWWDGADTD-NH2), the Ki was 429 ± 7 nM.

The values above are taken from patent US20260193293A1, “PEPTIDES CAPABLE OF INHIBITING PROTEIN-PROTEIN INTERACTIONS AT GABAB1A SUBUNIT AND USES THEREOF” (UNIVERSITY OF COPENHAGEN, priority 2022, published 2026).
